The values that follow come from patent US20240050428A1 (Cullgen (Shanghai), Inc., priority 2020, published 2024).

Experiment [1] relates to MV4;11 cells. Briefly: Cell viability assay (CellTiter-Glo) in MV4;11 cells, alone or with gilteritinib. The class given is cell-based. Particulars: Homo sapiens, MV4-11, 72 h, read-out: MV4. (Cellular ATP, detected with luciferase, serves as a proxy for viable cell number.)
For experiment [2], the system named is MOLM-13 cells. Briefly: Cell viability assay (CellTiter-Glo) in MOLM-13 cells, alone or with gilteritinib. Particulars: Homo sapiens, MOLM-13, 72 h. The format is cell-based.
Setting [3] is: MV4;11 cells, compound alone (without gilteritinib), three days, CellTiter-Glo, 11 IC50.
Where [4] appears, read: MV4;11 cells, with gilteritinib 10 nM, three days, CellTiter-Glo, 11 IC50 gilteritinib.
The mark [5] stands for this setting: MOLM-13 cells, compound alone (without gilteritinib), three days, CellTiter-Glo, read-out: MOLM-13 IC50.
The mark [6] stands for this setting: MOLM-13 cells, with gilteritinib 20 nM, three days, CellTiter-Glo, read-out: MOLM-13 IC50 gilteritinib.
[7] abbreviates: MV4;11 cells, without gilteritinib, 3 days, CellTiter-Glo, 11 IC50.
[8] abbreviates: MOLM-13 cells, with 20 nM gilteritinib, 3 days, CellTiter-Glo, read-out: MOLM-13 IC50 gilteritinib.
Where [9] appears, read: MOLM-13 cells, without gilteritinib, 3 days, CellTiter-Glo, read-out: MOLM-13 IC50.
The mark [10] stands for this setting: MV4;11 cells, with 10 nM gilteritinib, 3 days, CellTiter-Glo, 11 IC50 gilteritinib.

Molecules are shown by their SMILES. Read-outs that look alike come from different tables or passages of the source.

In the case of `CN1CCC(c2cccc3ncc(-c4cnn(C5CCN(C(=O)CCCCCNc6ccc7c(c6)C(=O)N(C6CCC(=O)NC6=O)C7=O)CC5)c4)nc23)CC1` (stereo not drawn) [GS-045, 2-(2,6-Dioxopiperidin-3-yl)-5-((6-(4-(4-(8-(1-methylpiperidin-4-yl)quinoxalin-2-yl)-1H-pyrazol-1-yl)piperidin-1-yl)-6-oxohexyl)amino)isoindoline-1,3-dione], the IC50 in experiment [1] (setting [3]) is 100 to 1000 nM; in experiment [1] (setting [4]), less than 10 nM; in experiment [2] (setting [5]) it was more than 1000 nM; in experiment [2] (setting [6]), less than 10 nM.

For `CN1CCN(c2cnn(C3CCN(C(=O)CCCCCNc4ccc5c(c4)C(=O)N(C4CCC(=O)NC4=O)C5=O)CC3)c2)CC1` (stereo not drawn) [GS-046, 2-(2,6-Dioxopiperidin-3-yl)-5-((6-(4-(4-(4-methylpiperazin-1-yl)-1H-pyrazol-1-yl)piperidin-1-yl)-6-oxohexyl)amino)isoindoline-1,3-dione], the IC50 in experiment [1] (setting [3]) was more than 1000 nM; in experiment [1] (setting [4]), 10 to 100 nM; in experiment [2] (setting [5]) it was 100 to 1000 nM; in experiment [2] (setting [6]), 10 to 100 nM.

As to `O=C1CCC(N2C(=O)c3ccc(NCCCCCC(=O)N4CCC(n5cc(N6CCOCC6)cn5)CC4)cc3C2=O)C(=O)N1` (stereo not drawn) [GS-047, 2-(2,6-Dioxopiperidin-3-yl)-5-((6-(4-(4-morpholino-1H-pyrazol-1-yl)piperidin-1-yl)-6-oxohexyl)amino)isoindoline-1,3-dione], the IC50 in experiment [1] (setting [3]) was in the range of 100 to 1000 nM; in experiment [1] (setting [4]) it was 10 to 100 nM; in experiment [2] (setting [5]), 100 to 1000 nM; in experiment [2] (setting [6]), 10 to 100 nM.

In the case of `O=C1CCC(N2C(=O)c3ccc(NCCCCCC(=O)N4CCC(n5cc(N6CCCCC6)cn5)CC4)cc3C2=O)C(=O)N1` (stereo not drawn) [GS-048, 2-(2,6-Dioxopiperidin-3-yl)-5-((6-oxo-6-(4-(4-(piperidin-1-yl)-1H-pyrazol-1-yl)piperidin-1-yl)hexyl)amino)isoindoline-1,3-dione], the IC50 in experiment [1] (setting [3]) is 10 to 100 nM; in experiment [1] (setting [4]), less than 10 nM; in experiment [2] (setting [5]) it was 100 to 1000 nM; in experiment [2] (setting [6]) it was 10 to 100 nM.

Regarding `O=C1CCC(N2C(=O)c3ccc(NCCCCCC(=O)N4CCC(n5cc(C6CCCCC6)cn5)CC4)cc3C2=O)C(=O)N1` (stereo not drawn) [GS-049, 5-((6-(4-(4-Cyclohexyl-1H-pyrazol-1-yl)piperidin-1-yl)-6-oxohexyl)amino)-2-(2,6-dioxopiperidin-3-yl)isoindoline-1,3-dione], the IC50 is 10 to 100 nM in experiment [1] (setting [3]), 10 to 100 nM in experiment [1] (setting [4]), 10 to 100 nM in experiment [2] (setting [5]) and less than 10 nM in experiment [2] (setting [6]).

Take `O=C1CCC(N2C(=O)c3ccc(NCCCCCC(=O)N4CCC(n5cc(-c6ccccc6)cn5)CC4)cc3C2=O)C(=O)N1` (stereo not drawn) [GS-050, 2-(2,6-Dioxopiperidin-3-yl)-5-((6-oxo-6-(4-(4-phenyl-1H-pyrazol-1-yl)piperidin-1-yl)hexyl)amino)isoindoline-1,3-dione]: the IC50 was less than 10 nM in experiment [1] (11 IC50), less than 10 nM in experiment [1] (11 IC50 gilteritinib), 10 to 100 nM in experiment [2] (read-out: MOLM-13 IC50) and less than 10 nM in experiment [2] (read-out: MOLM-13 IC50 gilteritinib).

For `O=C1CCC(N2C(=O)c3ccc(NCCCCCC(=O)N4CCC(n5cc(-c6ncccn6)cn5)CC4)cc3C2=O)C(=O)N1` (stereo not drawn) [GS-051, 2-(2,6-Dioxopiperidin-3-yl)-5-((6-oxo-6-(4-(4-(pyrimidin-2-yl)-1H-pyrazol-1-yl)piperidin-1-yl)hexyl)amino)isoindoline-1,3-dione], the IC50 in experiment [1] (setting [3]) was 10 to 100 nM; in experiment [1] (setting [4]), less than 10 nM; in experiment [2] (setting [5]), 100 to 1000 nM; in experiment [2] (setting [6]) it was 10 to 100 nM.

`O=C1CCC(N2C(=O)c3ccc(NCCCCCC(=O)N4CCC(n5cc(-c6ccc7cccc(Br)c7n6)cn5)CC4)cc3C2=O)C(=O)N1` (stereo not drawn) [GS-052, 5-((6-(4-(4-(8-Bromoquinolin-2-yl)-1H-pyrazol-1-yl)piperidin-1-yl)-6-oxohexyl)amino)-2-(2,6-dioxopiperidin-3-yl)isoindoline-1,3-dione]: the IC50 in experiment [1] (setting [3]) is 100 to 1000 nM; in experiment [1] (setting [4]), less than 10 nM; in experiment [2] (setting [5]) it was more than 1000 nM; in experiment [2] (setting [6]), less than 10 nM.

`O=C1CCC(N2C(=O)c3ccc(NCCCCCC(=O)N4CCC(n5cc(-c6ccccn6)cn5)CC4)cc3C2=O)C(=O)N1` (stereo not drawn) [GS-053, 2-(2,6-Dioxopiperidin-3-yl)-5-((6-oxo-6-(4-(4-(pyridin-2-yl)-1H-pyrazol-1-yl)piperidin-1-yl)hexyl)amino)isoindoline-1,3-dione]: the IC50 in experiment [1] (setting [3]) was 10 to 100 nM; in experiment [1] (setting [4]), less than 10 nM; in experiment [2] (setting [5]), 100 to 1000 nM; in experiment [2] (setting [6]), less than 10 nM.

`O=C(CCC(F)(F)C(=O)N1CCC(n2cc(-c3cnc4cccc(Br)c4n3)cn2)CC1)NCc1ccc2c(c1)CN(C1CCC(=O)NC1=O)C2=O` (stereo not drawn) [GS-054, 5-(4-(4-(8-Bromoquinoxalin-2-yl)-1H-pyrazol-1-yl)piperidin-1-yl)-N-((2-(2,6-dioxopiperidin-3-yl)-1-oxoisoindolin-5-yl)methyl)-4,4-difluoro-5-oxopentanamide]: the IC50 is less than 10 nM in experiment [1] (setting [3]), less than 10 nM in experiment [1] (setting [4]), 10 to 100 nM in experiment [2] (setting [5]) and less than 10 nM in experiment [2] (setting [6]).

As to `CN(Cc1ccc2c(c1)CN(C1CCC(=O)NC1=O)C2=O)C(=O)CCCC(=O)N1CCC(n2cc(-c3cnc4cccc(Br)c4n3)cn2)CC1` (stereo not drawn) [GS-058, 5-(4-(4-(8-Bromoquinoxalin-2-yl)-1H-pyrazol-1-yl)piperidin-1-yl)-N-((2-(2,6-dioxopiperidin-3-yl)-1-oxoisoindolin-5-yl)methyl)-N-methyl-5-oxopentanamide], the IC50 in experiment [1] (setting [3]) was more than 1000 nM; in experiment [1] (setting [4]), 100 to 1000 nM; in experiment [2] (setting [5]), 100 to 1000 nM; in experiment [2] (setting [6]), more than 1000 nM.

Take `O=C1CCC(N2C(=O)c3ccc(NCCCCCC(=O)N4CCC(c5cnc6cccc(Br)c6n5)CC4)cc3C2=O)C(=O)N1` (stereo not drawn) [GS-060, 5-((6-(4-(8-Bromoquinoxalin-2-yl)piperidin-1-yl)-6-oxohexyl)amino)-2-(2,6-dioxopiperidin-3-yl)isoindoline-1,3-dione]: the IC50 was less than 10 nM in experiment [1] (setting [3]); less than 10 nM in experiment [1] (setting [4]); less than 1 nM in experiment [1] (setting [7]); less than 10 nM in experiment [2] (setting [5]); 0.06 nM in experiment [2] (setting [8]); less than 10 nM in experiment [2] (setting [6]). Further, in experiment [2] (setting [9]), the IC50 was 3.7 nM.

As to `O=C1CCC(N2C(=O)c3ccc(NCCCCCC(=O)c4ccc(-n5cccn5)cc4)cc3C2=O)C(=O)N1` (stereo not drawn) [GS-061, 5-((6-(4-(1H-Pyrazol-1-yl)phenyl)-6-oxohexyl)amino)-2-(2,6-dioxopiperidin-3-yl)isoindoline-1,3-dione], the IC50 in experiment [1] (setting [3]) was more than 1000 nM; in experiment [1] (setting [4]), 100 to 1000 nM; in experiment [2] (setting [5]) it was more than 1000 nM; in experiment [2] (setting [6]) it was 100 to 1000 nM.

Turning to `O=C1CCC(N2C(=O)c3ccc(NCCCCCC(=O)N4CC(n5cc(-c6cnc7cccc(Br)c7n6)cn5)C4)cc3C2=O)C(=O)N1` (stereo not drawn) [GS-062, 5-((6-(3-(4-(8-Bromoquinoxalin-2-yl)-1H-pyrazol-1-yl)azetidin-1-yl)-6-oxohexyl)amino)-2-(2,6-dioxopiperidin-3-yl)isoindoline-1,3-dione], the IC50 is 1920 nM in experiment [1] (setting [10]), 9410 nM in experiment [1] (setting [7]), 72 nM in experiment [2] (setting [8]) and more than 10000 nM in experiment [2] (setting [9]).

Regarding `O=C1CCC(N2C(=O)c3ccc(NCCCCCC(=O)N4CCC(n5cc(N6CCC6)cn5)CC4)cc3C2=O)C(=O)N1` (stereo not drawn) [GS-063, 5-((6-(4-(4-(Azetidin-1-yl)-1H-pyrazol-1-yl)piperidin-1-yl)-6-oxohexyl)amino)-2-(2,6-dioxopiperidin-3-yl)isoindoline-1,3-dione], the IC50 is 8550 nM in experiment [1] (setting [10]), more than 10000 nM in experiment [1] (setting [7]), 3680 nM in experiment [2] (setting [8]) and more than 10000 nM in experiment [2] (setting [9]).

Turning to `O=C1CCC(N2C(=O)c3ccc(NCCCCCC(=O)N4CCC(n5cc(C6CC6)cn5)CC4)cc3C2=O)C(=O)N1` (stereo not drawn) [GS-064, 5-((6-(4-(4-Cyclopropyl-1H-pyrazol-1-yl)piperidin-1-yl)-6-oxohexyl)amino)-2-(2,6-dioxopiperidin-3-yl)isoindoline-1,3-dione], the IC50 in experiment [1] (setting [10]) was found to be 27 nM; in experiment [1] (setting [7]), 349 nM; in experiment [2] (setting [8]), 600 nM; in experiment [2] (setting [9]), 520 nM.

Turning to `Cc1cccc(-c2ccn([C@H]3C[C@H](CNc4ccc5c(c4)C(=O)N(C4CCC(=O)NC4=O)C5=O)C3)n2)n1` (stereo partly drawn) [GS-065, 2-(2,6-Dioxopiperidin-3-yl)-5-(((trans-3-(3-(6-methylpyridin-2-yl)-1H-pyrazol-1-yl)cyclobutyl)methyl)amino)isoindoline-1,3-dione], the IC50 in experiment [1] (setting [3]), in experiment [1] (setting [4]), in experiment [2] (setting [5]) and in experiment [2] (setting [6]) was more than 1000 nM each time.

For `O=C1CCC(N2C(=O)c3ccc(NC[C@H]4C[C@H](n5cc(-c6cnc7cc(N8CCOCC8)ccc7n6)c(C6CC6)n5)C4)cc3C2=O)C(=O)N1` (stereo partly drawn) [GS-066, 5-(((trans-3-(3-Cyclopropyl-4-(6-morpholinoquinoxalin-2-yl)-1H-pyrazol-1-yl)cyclobutyl)methyl)amino)-2-(2,6-dioxopiperidin-3-yl)isoindoline-1,3-dione], the IC50 was 10 to 100 nM in experiment [1] (setting [3]), less than 10 nM in experiment [1] (setting [4]), 10 to 100 nM in experiment [2] (setting [5]) and less than 10 nM in experiment [2] (setting [6]).
